The results in this text go back to ChEMBL document CHEMBL1201862, “PubChem BioAssay data set” (2004).

Structures are written as SMILES.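 Step 1: Grow cells in 96-well plates. Step 2: Expose to compound for 48 hours at 5 concentrations. Step 3: Interpolate endpoints linearly; if unreached, use highest concentration. GI50 is the concentration that inhibits growth by half.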 Activity calls are given as the source filed them. Cut-off read from the data, not from the text of the source: active = GI50 up to about 1.1 µM and inactive = higher.

Some test systems named below: MOLT-4; MDA-N; K562; HOP-62; SW-620; KM12; UACC-62; BT-549; HL-60; ACHN; NCI-H460; OVCAR-5; OVCAR-4; HCC 2998; OVCAR-8; RPMI-8226; U-251; SK-MEL-5; T47D; A498.
What all share (test): DTP human tumour cell line panel, 48 h

The GI50 is the concentration at which growth is held to half of that of the control. With `c1ccc(CN2CCC3(CC2)SSC2(CCN(Cc4ccccc4)CC2)S3)cc1`, the GI50 with MOLT-4 was > 100 µM (inactive); in the assay on MDA-N it was 44.7 µM (inactive); in the assay with K562 it was 71.6 µM (inactive); in the assay with HOP-62, > 100 µM (inactive); in the assay with SW-620 it was > 100 µM (inactive); with KM12, 45.3 µM (inactive). Also, the GI50 in the assay on UACC-62 is 82.8 µM (inactive); in the assay with BT-549, > 100 µM (inactive); with HL-60, 78 µM (inactive); in the assay on ACHN, > 100 µM (inactive); in the assay on NCI-H460 it was 25.6 µM (inactive); in the assay with OVCAR-5, 85.3 µM (inactive). Besides, the GI50 in the assay on OVCAR-4 is 52.4 µM (inactive); with HCC 2998 it was 26.9 µM (inactive); in the assay on OVCAR-8, > 100 µM (inactive); in the assay on RPMI-8226 it was 20.1 µM (inactive); in the assay on U-251 it was > 100 µM (inactive).

Turning to `CCOC(=O)c1c(SC)nc(-c2ccc(Cl)cc2)sc1=N.[O-][Cl+3]([O-])([O-])O`, the GI50 with MOLT-4 was 26.4 µM (inactive); in the assay on K562, 34.4 µM (inactive); in the assay on HOP-62 it was 30.1 µM (inactive); in the assay with SW-620 it was 48 µM (inactive); with SK-MEL-5, 15.2 µM (inactive); with KM12 it was 30.8 µM (inactive). Also, the GI50 in the assay on T47D was 31.9 µM (inactive); in the assay with A498, 31.5 µM (inactive); in the assay on UACC-62, 30.8 µM (inactive); with BT-549, 30 µM (inactive); in the assay on HL-60 it was 35 µM (inactive); with ACHN, 40.1 µM (inactive). The GI50 in the assay with NCI-H460 is 26 µM (inactive); in the assay on OVCAR-5, 59.2 µM (inactive); in the assay on OVCAR-4, 30.8 µM (inactive); in the assay with HCC 2998 it was 22.7 µM (inactive); with OVCAR-8 it was 23.5 µM (inactive); in the assay with RPMI-8226, 37.2 µM (inactive). For the same compound, in the assay with U-251, the GI50 was 37.6 µM (inactive).

`COc1ccc2c(c1)C(=O)OCCC2`: the GI50 with MOLT-4, in the assay on K562, in the assay on HOP-62, in the assay on SW-620, in the assay on SK-MEL-5 and in the assay on KM12 was > 100 µM (inactive) throughout. The GI50 with T47D, in the assay with A498, in the assay with UACC-62, in the assay on BT-549, in the assay with HL-60 and in the assay with ACHN was > 100 µM (inactive) in each case. Besides, the GI50 in the assay on NCI-H460, in the assay with OVCAR-5, in the assay with OVCAR-4, in the assay with HCC 2998, with OVCAR-8 and in the assay with RPMI-8226 was > 100 µM (inactive) throughout. Moreover, in the assay with U-251, the GI50 is > 100 µM (inactive).

Turning to `O=C1C(=C/C=C2/SC(c3ccccc3)(c3ccccc3)c3ccccc32)C(=O)c2ccccc21`, the GI50 in the assay with MOLT-4, with MDA-N, with K562, in the assay on HOP-62, in the assay with SW-620 and in the assay with SK-MEL-5 was > 100 µM (inactive) in each case. The GI50 with KM12, in the assay on A498, in the assay with UACC-62, in the assay with BT-549, in the assay with ACHN and with NCI-H460 was > 100 µM (inactive) throughout. The GI50 in the assay on OVCAR-5, in the assay on OVCAR-4, with HCC 2998, in the assay with OVCAR-8, with RPMI-8226 and in the assay on U-251 was > 100 µM (inactive) each time.

Regarding `C[C@]12CC[C@H](O)CC1=CC[C@@H]1[C@@H]2CC[C@]2(C)C(=O)[C@@H](N3CCOCC3)C[C@@H]12`, the GI50 was 55.3 µM (inactive) in the assay on MOLT-4; > 100 µM (inactive) in the assay on MDA-N; 89.3 µM (inactive) with K562; > 100 µM (inactive) with HOP-62; > 100 µM (inactive) in the assay with SW-620; 33.1 µM (inactive) with SK-MEL-5. Further, the GI50 in the assay on KM12 was > 100 µM (inactive); with T47D, 31 µM (inactive); in the assay with A498, > 100 µM (inactive); in the assay with UACC-62, 76.4 µM (inactive); in the assay with HL-60, 47.1 µM (inactive); in the assay with ACHN it was > 100 µM (inactive). The GI50 with NCI-H460 was > 100 µM (inactive); in the assay on OVCAR-5, > 100 µM (inactive); with OVCAR-4 it was > 100 µM (inactive); with HCC 2998, > 100 µM (inactive); in the assay on OVCAR-8 it was 47.1 µM (inactive); in the assay on RPMI-8226 it was 48.4 µM (inactive). In addition, in the assay on U-251, the GI50 is 89.3 µM (inactive).

With `S=c1nc(N2CCCCC2)c2cn[nH]c2[nH]1`, the GI50 with K562 is 29.9 µM (inactive); in the assay on HOP-62 it was > 100 µM (inactive); with SW-620, 57 µM (inactive); in the assay on SK-MEL-5 it was 1.53 µM (inactive); in the assay with KM12, 29.5 µM (inactive); in the assay on T47D, 59.6 µM (inactive). The GI50 in the assay with A498 was > 100 µM (inactive); with UACC-62 it was 50.1 µM (inactive); with BT-549, 26.1 µM (inactive); in the assay with HL-60, 19.6 µM (inactive); in the assay on ACHN it was 54.6 µM (inactive); in the assay with NCI-H460, 42.3 µM (inactive). In addition, the GI50 in the assay with OVCAR-5 was > 100 µM (inactive); with OVCAR-4 it was 93.5 µM (inactive); in the assay with HCC 2998, 44 µM (inactive); in the assay on OVCAR-8, 64.9 µM (inactive); in the assay with RPMI-8226 it was 12.2 µM (inactive); in the assay with U-251, 60.5 µM (inactive).

As for `NC1=Nc2ccccc2Sc2nncn21`, the GI50 in the assay with MOLT-4, in the assay on K562, in the assay with HOP-62, in the assay on SW-620, with SK-MEL-5 and with KM12 was > 100 µM (inactive) throughout. In addition, the GI50 in the assay on T47D, in the assay on A498, with UACC-62, in the assay with BT-549, in the assay on HL-60 and with ACHN was > 100 µM (inactive) in each case. For the same compound, the GI50 with NCI-H460, in the assay with OVCAR-5, in the assay with OVCAR-4, in the assay on HCC 2998, in the assay on OVCAR-8 and in the assay on RPMI-8226 was > 100 µM (inactive) in each case. In addition, the GI50 in the assay with U-251 was > 100 µM (inactive).

For the compound `O=C1CC(c2ccccc2)Oc2ccccc21` (stereo unspecified) [FLAVANONE], the GI50 in the assay with MOLT-4 is 13.7 µM (inactive); with K562, 12.6 µM (inactive); with HOP-62 it was 48.4 µM (inactive); in the assay with SW-620, > 10 µM (inactive); in the assay with SK-MEL-5 it was 25.1 µM (inactive); with KM12, 35.7 µM (inactive). Further, the GI50 with T47D is 35.8 µM (inactive); in the assay on A498, 30.3 µM (inactive); in the assay with UACC-62, 51.3 µM (inactive); with BT-549 it was 15.4 µM (inactive); in the assay on HL-60, 21.5 µM (inactive); with ACHN it was 47.6 µM (inactive). The GI50 is 32.1 µM (inactive) in the assay on NCI-H460; 66.1 µM (inactive) in the assay on OVCAR-4; 76.9 µM (inactive) in the assay on HCC 2998; 48.9 µM (inactive) in the assay on OVCAR-8; 17.1 µM (inactive) in the assay on RPMI-8226; 38.6 µM (inactive) in the assay with U-251.

As for `CCOC(=O)N(C)C1(c2ccccc2)CCN(CCCC(=O)c2ccc(F)cc2)CC1`, the GI50 in the assay with MOLT-4 is 31.8 µM (inactive); with MDA-N, 21.7 µM (inactive); in the assay on K562, 23.7 µM (inactive); in the assay with HOP-62 it was 38.5 µM (inactive); in the assay with SW-620, 0.349 µM (active); in the assay with SK-MEL-5, 17.3 µM (inactive). The GI50 in the assay with KM12 is 30.5 µM (inactive); with T47D, 61.1 µM (inactive); in the assay on A498 it was 36.5 µM (inactive); with UACC-62, 42.1 µM (inactive); in the assay on HL-60 it was 26.5 µM (inactive); in the assay with ACHN it was 84.1 µM (inactive). Besides, the GI50 in the assay with NCI-H460 was 35.5 µM (inactive); with OVCAR-5 it was 49 µM (inactive); in the assay on OVCAR-4, 40.2 µM (inactive); with HCC 2998, 21 µM (inactive); in the assay on OVCAR-8, > 100 µM (inactive); in the assay with RPMI-8226 it was 27.4 µM (inactive). Besides, the GI50 in the assay on U-251 is 61.4 µM (inactive).

Take `OC(c1ccc(F)cc1)C(F)(F)c1nc2ccccc2o1` (stereo unspecified): the GI50 was 46.6 µM (inactive) in the assay on MOLT-4; 30.8 µM (inactive) in the assay with K562; 62.5 µM (inactive) in the assay on HOP-62; > 100 µM (inactive) with SW-620; 50 µM (inactive) in the assay on SK-MEL-5; 44.3 µM (inactive) in the assay with KM12. Further, the GI50 in the assay on T47D was 76 µM (inactive); in the assay with A498, 34.4 µM (inactive); in the assay with UACC-62 it was > 100 µM (inactive); in the assay on BT-549 it was > 100 µM (inactive); with HL-60 it was > 100 µM (inactive); with ACHN it was > 100 µM (inactive). The GI50 in the assay on NCI-H460 is > 100 µM (inactive); in the assay on OVCAR-4, > 100 µM (inactive); in the assay with HCC 2998, > 100 µM (inactive); with OVCAR-8 it was 51.2 µM (inactive); in the assay on RPMI-8226 it was 90.6 µM (inactive); in the assay with U-251, > 100 µM (inactive).

On to `CC(C)[Si]1(C(C)C)OCC2OC3(CO)C(Oc4nc(=O)ccn43)C2O[Si](C(C)C)(C(C)C)O1` (stereo unspecified), for which the GI50 is 7.55 µM (inactive) in the assay with MOLT-4; 21 µM (inactive) in the assay on K562; 15 µM (inactive) in the assay on HOP-62; 15.5 µM (inactive) in the assay with SW-620; 13.5 µM (inactive) in the assay on SK-MEL-5; 13.3 µM (inactive) with KM12. In addition, the GI50 in the assay on T47D is 9.59 µM (inactive); in the assay on UACC-62, 12.8 µM (inactive); in the assay with BT-549, 11.6 µM (inactive); in the assay on HL-60 it was 6.17 µM (inactive); in the assay with ACHN, 15.5 µM (inactive); in the assay with NCI-H460, 15 µM (inactive). For the same compound, the GI50 with OVCAR-4 is 13.1 µM (inactive); with HCC 2998, 12.5 µM (inactive); in the assay on OVCAR-8 it was 14.1 µM (inactive); with RPMI-8226 it was 5.81 µM (inactive); in the assay with U-251 it was 14.2 µM (inactive).
